{
  "source": "patent US20070117743A1",
  "about": "“New antitumoral compounds” (priority 2003, published 2007)",
  "format_in_all_cases": "cell-based, human",
  "settings_in_all_cases": "48 hours exposure, SRB",
  "key": {"HeLa-APL": {"system": "HeLa-APL", "experiment": "SRB colorimetric assay of cell growth and viability, HeLa-APL"}, "DU-145": {"system": "DU-145", "experiment": "SRB colorimetric assay of cell growth and viability, DU-145"}, "PANC-1": {"system": "PANC-1", "experiment": "SRB colorimetric assay of cell growth and viability, PANC-1"}, "SK-BR-3": {"system": "SK-BR-3", "experiment": "SRB colorimetric assay of cell growth and viability, SK-BR-3", "from_the_text": "The finality of this assay is to interrupt the growth of a “in vitro” tumor cell culture by means a continued exhibition of the cells to the sample to be testing.\nThis form of the assay employs 96 well cell culture microplates of 9 mm diameter (Faircloth, 1988; Mosmann, 1983). Most of the cell lines are obtained from American Type Culture Collection (ATCC) derived from different human cancer types.\nCells are maintained in RPMI 1640 10% FBS, supplemented with 0.1 g/l penicillin and 0.1 g/l streptomycin sulfate and then incubated at 37° C., 5% CO2 and 98% humidity. For the experiments, cells were harvested from subconfluent cultures using trypsin and resuspended in fresh medium before plating.\nCells are seeded in 96 well microtiter plates, at 5×10^3 cells per well in aliquots of 195 μL medium, and they are allowed to attach to the plate surface by growing in drug free medium for 18 hours. Afterward, samples are added in aliquots of 5 μL in a ranging from 10 to 10^−8 μg/mL, dissolved in DMSO:EtOH:PBS (0.5:0.5:99). After 48 hours exposure, the antitumor effect are measured by the SRB methodology: cells are fixed by adding 50 μL of cold 50% (wt/vol) trichloroacetic acid (TCA) and incubating for 60 minutes at 4° C. Plates are washed with deionized water and dried. One hundred μL of SRB solution (0.4% wt/vol in 1% acetic acid) is added to each microtiter well and incubated for 10 minutes at room temperature. Unbound SRB is removed by washing with 1% acetic acid. Plates are air dried and bound stain is solubilized with Tris buffer. Optical densities are read on a automated spectrophotometric plate reader at a single wavelength of 490 nm.\nThe values for mean+/− SD of data from triplicate wells are calculated. Some parameters for cellular responses can be calculated: GI=growth inhibition, TGI=total growth inhibition (cytostatic effect) and LC=cell killing (cytotoxic effect)."}, "IGROV-1": {"system": "IGROV-1", "experiment": "SRB colorimetric assay of cell growth and viability, IGROV-1"}, "HT-29": {"system": "HT-29", "experiment": "SRB colorimetric assay of cell growth and viability, HT-29"}, "K-562": {"system": "K-562", "experiment": "SRB colorimetric assay of cell growth and viability, K-562"}, "SK-MEL-28": {"system": "SK-MEL-28", "experiment": "SRB colorimetric assay of cell growth and viability, SK-MEL-28"}, "LoVo": {"system": "LoVo", "experiment": "SRB colorimetric assay of cell growth and viability, LoVo"}, "HeLa": {"system": "HeLa", "experiment": "SRB colorimetric assay of cell growth and viability, HeLa"}, "LoVo-Dox": {"system": "LoVo-Dox", "experiment": "SRB colorimetric assay of cell growth and viability, LoVo-Dox", "outline": "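Here, cells grow drug-free for 18 h, then receive sample dilutions from 10 down to 10^−8 μg/mL for 48 h at 37° C. Protein-bound SRB is solubilized in Tris and quantified at 490 nm.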"}, "A-549": {"system": "A-549", "experiment": "SRB colorimetric assay of cell growth and viability, A-549"}, "IGROV-ET": {"system": "IGROV-ET", "experiment": "SRB colorimetric assay of cell growth and viability, IGROV-ET"}},
  "data": [
    {"smiles": "C/C=C1\\NC(=O)[C@H](Cc2ccccc2)N(C)C(=O)[C@@H](C(C)C)NC(=O)[C@@H]([C@@H](C)CC)NC(=O)[C@H](NC(=O)[C@H](NC(=O)[C@H](CCCN)NC(=O)[C@H]2CCCN2C(=O)[C@H](NC(=O)[C@@H](NC(=O)[C@@H](NC(=O)[C@H](NC(=O)CC[C@@H](C)CC)C(C)C)[C@@H](C)O)C(C)C)C(C)C)[C@@H](C)CC)[C@@H](C)OC(=O)[C@H](C(C)C)NC1=O", "note": "[Compound 80, [NMePhe^3, (4S)-MeHex^14]-KF]", "values": [
      {"measurement": "GI50", "setting": "HeLa-APL", "result": 845, "unit": "nM"},
      {"measurement": "TGI HELA-APL", "setting": "HeLa-APL", "result": "1.64E−06", "unit": "Molar"},
      {"measurement": "CC50", "setting": "HeLa-APL; read-out: LC50 HELA-APL", "result": 3.19, "unit": "µM"},
      {"measurement": "GI50", "setting": "DU-145", "result": 1070, "unit": "nM"},
      {"measurement": "LC50 (concentration causing 50% net cell kill)", "setting": "DU-145", "result": 3.62, "unit": "µM"},
      {"measurement": "TGI DU-145", "setting": "DU-145", "result": "1.97E−06", "unit": "Molar"},
      {"measurement": "GI50", "setting": "PANC-1", "result": 1900, "unit": "nM"},
      {"measurement": "TGI PANC-1", "setting": "PANC-1", "result": "3.82E−06", "unit": "Molar"},
      {"measurement": "CC50", "setting": "PANC-1; read-out: LC50 PANC-1", "result": 6.7, "unit": "µM"},
      {"measurement": "GI50", "setting": "SK-BR-3", "result": 123, "unit": "nM"},
      {"measurement": "LC50", "setting": "SK-BR-3", "result": 1430, "unit": "nM"},
      {"measurement": "TGI SK-BR-3", "setting": "SK-BR-3", "result": "3.29E−07", "unit": "Molar"},
      {"measurement": "GI50", "setting": "IGROV-1", "result": 416, "unit": "nM"},
      {"measurement": "LC50 (concentration causing 50% net cell killing)", "setting": "IGROV-1", "result": 2820, "unit": "nM"},
      {"measurement": "TGI IGROV", "setting": "IGROV-1", "result": "1.17E−06", "unit": "Molar"},
      {"measurement": "TGI HT-29", "setting": "HT-29", "result": "4.03E−07", "unit": "Molar"},
      {"measurement": "GI50", "setting": "HT-29; read-out: GI50 HT-29", "result": 178, "unit": "nM"},
      {"measurement": "CC50", "setting": "HT-29; read-out: LC50 HT-29", "result": 1200, "unit": "nM"},
      {"measurement": "GI50", "setting": "K-562", "result": 744, "unit": "nM"},
      {"measurement": "TGI K-562", "setting": "K-562", "result": "1.62E−06", "unit": "Molar"},
      {"measurement": "CC50", "setting": "K-562; read-out: LC50 K-562", "result": 3.54, "unit": "µM"},
      {"measurement": "GI50", "setting": "SK-MEL-28", "result": 1320, "unit": "nM"},
      {"measurement": "TGI MEL-28", "setting": "SK-MEL-28", "result": "2.25E−06", "unit": "Molar"},
      {"measurement": "CC50", "setting": "SK-MEL-28; read-out: LC50 MEL-28", "result": 3.84, "unit": "µM"},
      {"measurement": "GI50", "setting": "LoVo", "result": 125, "unit": "nM"},
      {"measurement": "TGI LOVO", "setting": "LoVo", "result": "2.61E−07", "unit": "Molar"},
      {"measurement": "CC50", "setting": "LoVo; read-out: LC50 LOVO", "result": 545, "unit": "nM"},
      {"measurement": "GI50", "setting": "HeLa", "result": 392, "unit": "nM"},
      {"measurement": "TGI HELA", "setting": "HeLa", "result": "1.19E−06", "unit": "Molar"},
      {"measurement": "CC50", "setting": "HeLa; read-out: LC50 HELA", "result": 2510, "unit": "nM"},
      {"measurement": "GI50", "setting": "LoVo-Dox", "result": 120, "unit": "nM"},
      {"measurement": "TGI LOVO-DOX", "setting": "LoVo-Dox", "result": "2.08E−07", "unit": "Molar"},
      {"measurement": "CC50", "setting": "LoVo-Dox; read-out: LC50 LOVO-DOX", "result": 359, "unit": "nM"},
      {"measurement": "TGI A-549", "setting": "A-549", "result": "2.03E−06", "unit": "Molar"},
      {"measurement": "GI50", "setting": "A-549; read-out: GI50 A-549", "result": 1130, "unit": "nM"},
      {"measurement": "CC50", "setting": "A-549; read-out: LC50 A-549", "result": 3.67, "unit": "µM"},
      {"measurement": "GI50", "setting": "IGROV-ET", "result": 583, "unit": "nM"},
      {"measurement": "TGI IGROV-ET", "setting": "IGROV-ET", "result": "1.39E−06", "unit": "Molar"},
      {"measurement": "CC50", "setting": "IGROV-ET; read-out: LC50 IGROV-ET", "result": 3.04, "unit": "µM"}
    ]}
  ]
}
